The values below come from patent US20060009493A1, “Indolinone hydrazides as c-Met inhibitors” (Sugen, Inc., priority 2003, published 2006).

What is called pIC50 is −log10 of the IC50, conventionally taken in molar units.

Molecules are shown by their SMILES. pIC50: −log10 of the molar value. Where a name gives a salt, the structure may show the parent alone.

The target in the experiment is T1, GST fusion protein containing the Met kinase domain (Homo sapiens, UniProt P08581).
T1 construct: Purified GST fusion protein containing the Met kinase domain, Sugen, Inc
T1 sequence (P08581 1078-1345 limits assumed): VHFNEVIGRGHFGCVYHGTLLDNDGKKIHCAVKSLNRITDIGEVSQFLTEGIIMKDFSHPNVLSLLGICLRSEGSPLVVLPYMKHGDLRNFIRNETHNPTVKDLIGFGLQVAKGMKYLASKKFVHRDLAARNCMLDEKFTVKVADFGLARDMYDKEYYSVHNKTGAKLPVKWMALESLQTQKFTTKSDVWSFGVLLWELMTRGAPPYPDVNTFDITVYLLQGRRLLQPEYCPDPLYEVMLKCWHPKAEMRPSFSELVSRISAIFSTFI
The experiment is described as follows: MET Transphosphorylation Assay (ELISA, poly(Glu,Tyr) 4:1 substrate). In kind it is biochemical. The following applies: met transphosphorylation of poly(glutamic acid:tyrosine 4:1) substrate; two values in a cell separated by '/'. Here is the method:
MET Transphosphorylation Assay
This assay is used to measure phosphotyrosine levels on a poly(glutamic acid:tyrosine (4:1)) substrate as a means for identifying agonists/antagonists of met transphosphorylation of the substrate.
• 1. […] PBS, Gibco Catalog # 450-1300EB • 4. 50 mM HEPES • 5. […] Purified GST fusion protein containing the Met kinase domain, Sugen, Inc. • 7. TBST Buffer. • 8. 10% aqueous (MilliQue H2O) DMSO. • 9. […] 2× Kinase Dilution Buffer: for 100 ml, mix 10 mL 1M HEPES at pH 7.5 with 0.4 mL 5% BSA/PBS, 0.2 mL 0.1 M sodium orthovanadate and 1 mL 5M sodium chloride in 88.4 mL dH2O. • 11. 4×ATP Reaction Mixture: for 10 mL, mix 0.4 mL 1 M manganese chloride and 0.02 mL 0.1 M ATP in […] dH2O. • 12. 4× Negative Controls Mixture: for 10 mL, mix 0.4 mL 1 M manganese chloride in 9.6 mL dH2O.
13. […] 500 mM EDTA. • 15. Antibody Dilution Buffer: for 100 mL, mix 10 mL 5% BSA/PBS, 0.5 mL 5% Carnation Instant Milk® in PBS and 0.1 mL 0.1 M sodium orthovanadate in 88.4 mL TBST. • 16. Rabbit polyclonal antophosphotyrosine antibody, Sugen, Inc. • 17. Goat anti-rabbit horseradish peroxidase conjugated antibody, Biosource, Inc. • 18. ABTS Solution: for 1 L, mix 19.21 g citric acid, 35.49 g Na2HPO4 and 500 mg ABTS with sufficient dH2O to make 1 L. • 19. ABTS/H2O2: mix 15 mL ABST solution with 2 μL H2O2 five minutes before use. • 20. 0.2 M HCl Procedure: • 1. Coat ELISA plates with 2 μg Poly(Glu-Tyr) in 100 μL PBS, store overnight at 4° C. • 2. Block plate with 150 μL of 5% BSA/PBS for 60 min. • 3. Wash plate twice with PBS, once with 50 mM Hepes buffer pH 7.4. • 4. Add 50 μl of the diluted kinase to all wells. (Purified kinase is diluted with Kinase Dilution Buffer. Final concentration should be 10 ng/well.) • 5. Add 25 μL of the test compound (in 4% DMSO) or DMSO alone (4% in dH2O) for controls to plate. • 6. Incubate the kinase/compound mixture for 15 minutes. • 7. Add 25 μL of 40 mM MnCl2 to the negative control wells. • 8. Add 25 μL ATP/MnCl2 mixture to the all other wells (except the negative controls). Incubate for 5 min. • 9. Add 25 μL 500 mM EDTA to stop reaction. • 10. Wash plate 3× with TBST. • 11. Add 100 μL rabbit polyclonal anti-Ptyr diluted 1:10,000 in Antibody Dilution Buffer to each well. Incubate, with shaking, at room temperature for one hour. • 12. Wash plate 3× with TBST. • 13. […] Add 100 μL per well and incubate at room temperature, with shaking, for one hour. • 14. Wash plate 1× with PBS. • 15. Add 100 μl of ABTS/H2O2 solution to each well. • 16. If necessary, stop the development reaction with the addition of […] of 0.2M HCl per well. • 17.
(ELISA stands for enzyme-linked immunosorbent assay.)
Regarding `Cc1ccc(C)c2c1NC(=O)/C2=N\NC(=O)Cc1ccc(O)c(F)c1` [II-49, (3-Fluoro-4-hydroxy-phenyl)-acetic acid [(3Z)-4,7-dimethyl-2-oxo-1,2-dihydro-indol-3-ylidene]-hydrazide], the pIC50 was greater than 8.04.

`O=C(Cc1ccc(F)cc1)N/N=C1\C(=O)Nc2ccc(Cl)c(Cl)c21` [II-52, (4-Fluoro-phenyl)-acetic acid [(3Z)-4,5-dichloro-2-oxo-1,2-dihydro-indol-3-ylidene]-hydrazide] gave a pIC50 of 6.68.

Molecule `O=C(Cc1ccc2c(c1)OCO2)N/N=C1\C(=O)Nc2c(Cl)ccc(Cl)c21` [Example I-24, Benzo[1,3]dioxol-5-yl-acetic acid [(3Z)-4,7-dichloro-2-oxo-1,2-dihydro-indol-3-ylidene]-hydrazide] gave a pIC50 of 6.96.

For the molecule `O=C(Cc1cccc(Cl)c1)N/N=C1\C(=O)Nc2ccccc21` [II-14, (3-Chloro-phenyl)-acetic acid [(3Z)-2-oxo-1,2-dihydro-indol-3-ylidene]-hydrazide], the pIC50 was 5.25.

In turn, `O=C(Cc1ccc2c(c1)OCO2)N/N=C1\C(=O)Nc2ccc(Br)cc21` [Example I-22, Benzo[1,3]dioxol-5-yl-acetic acid [(3Z)-5-bromo-2-oxo-1,2-dihydro-indol-3-ylidene]-hydrazide] showed a pIC50 of 6.60.

For the molecule `CC(C(=O)N/N=C1\C(=O)Nc2ccc(Br)cc21)c1ccc2c(c1)OCO2` (stereo not drawn) [Example I-53, 2-Benzo[1,3]dioxol-5-yl-propionic acid [(3Z)-5-bromo-2-oxo-1,2-dihydro-indol-3-ylidene]-hydrazide], the pIC50 was 6.13.

For the molecule `O=C(Cc1c[nH]c(=O)[nH]c1=O)N/N=C1\C(=O)Nc2ccccc21` [II-90, (2,4-Dioxo-1,2,3,4-tetrahydro-pyrimidin-5-yl)-acetic acid [(3Z)-2-oxo-1,2-dihydro-indol-3-ylidene]-hydrazide], the pIC50 was less than 4.70.

`COc1cc(Cl)c2c(c1Cl)/C(=N/NC(=O)Cc1ccc(O)cc1)C(=O)N2` [II-95, (4-Hydroxy-phenyl)-acetic acid [(3Z)-4,7-dichloro-5-methoxy-2-oxo-1,2-dihydro-indol-3-ylidene]-hydrazide] gave a pIC50 of 7.49.

In turn, `O=C(Cc1ccc(O)cc1)N/N=C1\C(=O)Nc2ccc(Br)cc21` [II-20, (4-Hydroxy-phenyl)-acetic acid [(3Z)-5-bromo-2-oxo-1,2-dihydro-indol-3-ylidene]-hydrazide] showed a pIC50 of 7.62.

In turn, `Cc1ccc(C)c2c1NC(=O)/C2=N\NC(=O)CCc1ccc(O)cc1` [II-81, 3-(4-Hydroxy-phenyl)-propionic acid [(3Z)-4,7-dimethyl-2-oxo-1,2-dihydro-indol-3-ylidene]-hydrazide] gave a pIC50 of 7.23.

As to `O=C(Cc1ccc(O)cc1)N/N=C1\C(=O)Nc2ccc(S(=O)(=O)NCCN3CCOCC3)cc21` [Example I-26, (3Z)-3-{[2-(4-Hydroxy-phenyl)-acetyl]-hydrazono}-2-oxo-2,3-dihydro-1H-indole-5-sulfonic acid (2-morpholin-4-yl-ethyl)-amide], the pIC50 was 7.11.

`O=C(Cn1ccc(=O)[nH]c1=O)N/N=C1\C(=O)Nc2c(Cl)ccc(Cl)c21` [II-72, (2,4-Dioxo-3,4-dihydro-2H-pyrimidin-1-yl)-acetic acid [(3Z)-4,7-dichloro-2-oxo-1,2-dihydro-indol-3-ylidene]-hydrazide] gave a pIC50 of less than 4.70.

The molecule `Cc1ccc(CC(=O)N/N=C2\C(=O)Nc3ccccc32)cc1` [II-11, p-Tolyl-acetic acid [(3Z)-2-oxo-1,2-dihydro-indol-3-ylidene]-hydrazide] gave a pIC50 of less than 4.70.

As to `O=C(Cc1ccc(O)c(F)c1)N/N=C1\C(=O)Nc2c(Cl)ccc(Cl)c21` [II-55, (3-Fluoro-4-hydroxy-phenyl)-acetic acid [(3Z)-4,7-dichloro-2-oxo-1,2-dihydro-indol-3-ylidene]-hydrazide], the pIC50 was greater than 8.05.

`COc1ccc(C(C)C(=O)N/N=C2\C(=O)Nc3ccccc32)cc1` (stereo not drawn) [II-17]: the pIC50 is 6.64.

`O=C(Cc1ccc(O)cc1)N/N=C1\C(=O)Nc2cccc(-c3cccc(F)c3)c21` [Example I-14, (4-Hydroxy-phenyl)-acetic acid [(3Z)-4-(3-fluoro-phenyl)-2-oxo-1,2-dihydro-indol-3-ylidene]-hydrazide] had a pIC50 of 6.30. Against the preceding molecule, the pIC50 is 0.34 log units lower.

In turn, `COC(=O)c1cccc2c1/C(=N/NC(=O)Cc1ccc(O)cc1)C(=O)N2` [Example I-56, (3Z)-3-{[2-(4-Hydroxy-phenyl)-acetyl]-hydrazono}-2-oxo-2,3-dihydro-1H-indole-4-carboxylic acid methyl ester] showed a pIC50 of 6.27.

Consider `O=C(Cc1ccc(O)c(Br)c1)N/N=C1\C(=O)Nc2c(Cl)ccc(Cl)c21` [II-102, (3-Bromo-4-hydroxy-phenyl)-acetic acid [(3Z)-4,7-dichloro-2-oxo-1,2-dihydro-indol-3-ylidene]-hydrazide], for which the pIC50 was 6.72.

Take `Cn1cc(CC(=O)N/N=C2\C(=O)Nc3ccc(C(=O)N4CCC[C@@H]4CN4CCCC4)c(Cl)c32)ccc1=O` [Example I-36, (1-Methyl-6-oxo-1,6-dihydro-pyridin-3-yl)-acetic acid [(3Z)-4-chloro-2-oxo-5-[(2R)-2-pyrrolidin-1-ylmethyl-pyrrolidine-1-carbonyl]-1,2-dihydro-indol-3-ylidene]-hydrazide]: the pIC50 is 5.38.

As for `O=C(Cc1ccccc1Cl)N/N=C1\C(=O)Nc2ccccc21` [II-13, (2-Chloro-phenyl)-acetic acid [(3Z)-2-oxo-1,2-dihydro-indol-3-ylidene]-hydrazide], the pIC50 was less than 4.70.

As for `COc1ccc2c(c1Cl)/C(=N/NC(=O)C(C)c1ccc(O)cc1)C(=O)N2` (stereo not drawn) [II-99, 2-(4-Hydroxy-phenyl)-propionic acid [(3Z)-4-chloro-5-methoxy-2-oxo-1,2-dihydro-indol-3-ylidene)-hydrazide], the pIC50 was 7.35.

As to `CC(C(=O)N/N=C1\C(=O)Nc2ccc(C(=O)N3CCC(NC4CC4)CC3)c(Cl)c21)c1ccc(O)cc1` (stereo not drawn) [Example I-33, 2-(4-Hydroxy-phenyl)-propionic acid [(3Z)-4-chloro-5-(4-cyclopropylamino-piperidine-1-carbonyl)-2-oxo-1,2-dihydro-indol-3-ylidene]-hydrazide], the pIC50 was 7.07.

Regarding `O=C(Cc1ccc(O)nc1)N/N=C1\C(=O)Nc2ccc(C(=O)N3CCC[C@@H]3CNC3CC3)c(Cl)c21` [Example I-45, (6-Hydroxy-pyridin-3-yl)-acetic acid [(3Z)-4-chloro-5-[(2R)-2-cyclopropylaminomethyl-pyrrolidine-1-carbonyl]-2-oxo-1,2-dihydro-indol-3-ylidene]-hydrazide], the negative logarithm of the IC50 (pIC50) was 5.89.

Turning to `CC(C(=O)N/N=C1\C(=O)Nc2ccc(C(=O)N3CC[C@H](N)C3)c(Cl)c21)c1ccc(F)cc1` (stereo partly drawn) [Example I-48, 2-(4-Fluoro-phenyl)-propionic acid [(3Z)-5-[(3S)-3-amino-pyrrolidine-1-carbonyl]-4-chloro-2-oxo-1,2-dihydro-indol-3-ylidene]-hydrazide trifluoroacetate], the pIC50 was 6.34.

In turn, `CCOc1ccc(CC(=O)N/N=C2\C(=O)Nc3ccccc32)cc1` [II-10, (4-Ethoxy-phenyl)-acetic acid [(3Z)-2-oxo-1,2-dihydro-indol-3-ylidene]-hydrazide] had a pIC50 of less than 4.70.

In the case of `N#Cc1cc(CC(=O)N/N=C2\C(=O)Nc3c(Cl)ccc(Cl)c32)ccc1O` [II-109, (3-Cyano-4-hydroxy-phenyl)-acetic acid [(3Z)4,7-dichloro-2-oxo-1,2-dihydro-indol-3-ylidene)-hydrazide], the pIC50 was 5.79.

Consider `CC(C(=O)N/N=C1\C(=O)Nc2ccc(C#CCN(C)C)cc21)c1ccc(F)cc1` (stereo not drawn) [Example I-51, 2-(4-Fluoro-phenyl)-propionic acid [(3Z)-5-(3-dimethylamino-prop-1-ynyl)-2-oxo-1,2-dihydro-indol-3-ylidene]-hydrazide], for which the pIC50 was 5.29.
